Data from ChEMBL document CHEMBL1828497, “Novel indole and azaindole (pyrrolopyridine) cannabinoid (CB) receptor agonists: design, synthesis, structure-activity relationships, physicochemical properties and biological activity” (Eur J Med Chem, 2011).
Converted amounts (≈) assume the structure as drawn.

Columns and labels:
Cannabinoid receptor 2 [1] = biological target: T1, Cannabinoid receptor 2 (Homo sapiens, UniProt P34972); assay: Displacement of [3H]-CP55940 from human CB2 receptor expressed in CHO cells by liquid scintillation counting; type: cell-based
T1 sequence (P34972 whole entry): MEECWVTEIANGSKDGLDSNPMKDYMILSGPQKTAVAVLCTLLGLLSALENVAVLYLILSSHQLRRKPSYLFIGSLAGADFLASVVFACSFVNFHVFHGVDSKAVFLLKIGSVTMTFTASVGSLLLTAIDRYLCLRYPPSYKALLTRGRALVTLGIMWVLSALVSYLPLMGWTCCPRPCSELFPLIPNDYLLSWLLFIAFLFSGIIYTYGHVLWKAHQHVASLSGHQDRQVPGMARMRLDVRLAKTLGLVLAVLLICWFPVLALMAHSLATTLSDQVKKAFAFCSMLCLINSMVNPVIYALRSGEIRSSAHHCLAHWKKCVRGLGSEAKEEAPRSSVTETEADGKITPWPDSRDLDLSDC

Cannabinoid receptor 1 [2] = biological target: T2, Cannabinoid receptor 1 (Homo sapiens, UniProt P21554); assay: Displacement of [3H]-CP55940 from human CB1 receptor expressed in CHO cells by liquid scintillation counting; type: cell-based
T2 sequence (P21554 whole entry): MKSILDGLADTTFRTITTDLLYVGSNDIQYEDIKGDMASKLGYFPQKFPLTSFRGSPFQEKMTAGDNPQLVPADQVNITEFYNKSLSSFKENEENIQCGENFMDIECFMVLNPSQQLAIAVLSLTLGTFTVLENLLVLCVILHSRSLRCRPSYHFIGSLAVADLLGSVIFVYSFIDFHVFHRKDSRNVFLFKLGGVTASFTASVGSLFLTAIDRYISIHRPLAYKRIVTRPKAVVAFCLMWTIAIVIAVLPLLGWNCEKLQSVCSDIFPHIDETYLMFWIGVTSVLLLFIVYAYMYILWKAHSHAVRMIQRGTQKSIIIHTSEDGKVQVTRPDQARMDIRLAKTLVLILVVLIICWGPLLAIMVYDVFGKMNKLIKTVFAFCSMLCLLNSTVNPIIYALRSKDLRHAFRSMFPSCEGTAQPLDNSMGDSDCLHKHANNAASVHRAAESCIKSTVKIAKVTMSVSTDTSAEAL

Homo sapiens = species: Homo sapiens; assay: Selectivity ratio of Ki for human CB2 receptor to Ki for human CB1 receptor
[3] = Lipophilicity, log D of the compound at pH 7.4; settings: buffer
physchem [4] = settings: phosphate buffer, pH 7.4
Description: Thermodynamic solubility of the compound in phosphate buffer at pH 7.4 after 24 hrs by HPLC analysis

physchem [5] = settings: phosphate buffer, pH 4
Description: Thermodynamic solubility of the compound in phosphate buffer at pH 4 after 24 hrs by HPLC analysis

Cannabinoid receptor 1 [6] = biological target: T2, Cannabinoid receptor 1; assay: Agonist activity at human CB1 receptor expressed in CHO cells assessed as stimulation of [3H]-arachidonic acid release; type: functional, cell-based
Cannabinoid receptor 2 [7] = biological target: T1, Cannabinoid receptor 2; assay: Agonist activity at human CB2 receptor expressed in CHO cells assessed as inhibition of forskolin-stimulated cAMP accumulation after 20 mins; type: functional, cell-based
[8] = biological target: Cannabinoid receptor 1 (Rattus norvegicus) (UniProt P20272); assay: (§1) Activation of CB1 receptor in Wistar rat prelimbic prefrontal cortex assessed as reduction of field excitatory postsynaptic potential amplitude after 20 mins; type: tissue-based
Cannabinoid receptor 1 (Rattus norvegicus), sequence (P20272 whole entry): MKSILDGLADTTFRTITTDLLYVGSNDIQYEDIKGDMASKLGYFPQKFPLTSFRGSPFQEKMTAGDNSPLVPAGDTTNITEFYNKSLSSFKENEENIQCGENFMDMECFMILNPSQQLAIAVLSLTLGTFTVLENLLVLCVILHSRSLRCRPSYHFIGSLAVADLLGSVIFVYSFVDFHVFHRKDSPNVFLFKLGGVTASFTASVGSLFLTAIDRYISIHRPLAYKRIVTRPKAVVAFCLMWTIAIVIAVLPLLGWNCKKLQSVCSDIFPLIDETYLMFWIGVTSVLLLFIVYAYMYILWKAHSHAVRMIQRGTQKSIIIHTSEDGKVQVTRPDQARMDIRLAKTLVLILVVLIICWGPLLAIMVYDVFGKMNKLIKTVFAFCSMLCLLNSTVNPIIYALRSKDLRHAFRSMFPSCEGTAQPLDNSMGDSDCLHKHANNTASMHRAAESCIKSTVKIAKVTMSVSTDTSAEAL

Cannabinoid receptor 1 [9] = biological target: Cannabinoid receptor 1 (Rattus norvegicus, UniProt P20272); assay: as §1; type: tissue-based
Cannabinoid receptor 1 (Rattus norvegicus, UniProt P20272), sequence (P20272 whole entry): as above

[10] = biological target: Cannabinoid receptor 1 (Rattus norvegicus) (UniProt P20272); assay: Activation of CB1 receptor in Wistar rat prelimbic prefrontal cortex assessed as reduction of field excitatory postsynaptic potential amplitude after 20 mins relative to baseline; type: tissue-based
[11] = Dissociation constant, pKa of the compound by fast UV-metric method; type: physicochemical
[12] = Apparent permeability from apical to basolateral side in human Caco2 cells by LC-MS/MS analysis; settings: Caco-2
physchem [13] = settings: 0.01 M phosphate buffered saline, pH 7.4
physchem [14] = settings: 0.01 M phosphate buffered saline, pH 7.4; remark: listed apart in the source

SMILES	Ki (Cannabinoid receptor 2 [1]) [nM]	Ki (Cannabinoid receptor 1 [2]) [nM]	Ratio Ki (Homo sapiens)	logD [3]	solubility thermodynamic at 24 h (physchem [4]) [µM]	solubility thermodynamic at 24 h (physchem [5]) [µM]	EC50 (Cannabinoid receptor 1 [6]) [nM]	EC50 (Cannabinoid receptor 2 [7]) [nM]	inhibition [8]	IC50 (Cannabinoid receptor 1 [9]) [nM]	Emax [10] [%]	pKa [11]	Papp A→B [12] [×10⁻⁶ cm/s]	solubility kinetic (physchem [13]) [µM]	solubility kinetic (physchem [14]) [µM]
COCCn1cc(C(=O)c2cccc(-c3ccccc3)c2)c2ccccc21	> 1000	251	> 4	4.4	< 1	< 1	–	–	–	–	–	–	–	–	–
CCCCCn1cc(C(=O)c2cccc3ccccc23)c2ccccc21	6.31	2	3	> 5	< 1	< 1	5.01	5.01	Dose-dependent effect	280	73.5	–	–	–	–
CCCCCn1cc(C(=O)c2cccc(-c3ccccc3)c2)c2ccccc21	63.1	7.94	9	> 5	< 1	–	–	–	–	–	–	–	–	–	–
CCCCCn1cc(C(=O)c2cccc3ccccc23)c2cccnc21	50.1	12.6	4	> 5	1 (≈ 0.342 µg/mL)	1 (≈ 0.342 µg/mL)	31.6	158	Dose-dependent effect	520	67.1	< 2	–	–	–
COCCn1cc(C(=O)Nc2ccc3ccccc3c2)c2ccccc21	316	> 1000	< 0.3	3.69	< 1	< 1	–	–	–	–	–	–	–	–	–
Cc1c(C(=O)c2cccc3ccccc23)c2cccc3c2n1[C@H](CN1CCOCC1)CO3 [WIN-552122]	–	–	–	4.08	5 (≈ 2.13 µg/mL)	8 (≈ 3.41 µg/mL)	–	–	–	–	–	4.14	12.1	3 (≈ 1.28 µg/mL)	20 (≈ 8.53 µg/mL)
CCCCCn1cc(C(=O)c2ccc(-c3ccccc3)cc2)c2ccccc21	39.8	31.6	1	> 5	< 1	< 1	–	–	–	–	–	–	–	–	–
CCCCCCC(C)(C)c1ccc([C@@H]2C[C@H](O)CC[C@H]2CCCO)c(O)c1 [CP-55940]	–	–	–	> 5	2 (≈ 0.753 µg/mL)	2 (≈ 0.753 µg/mL)	–	–	–	–	–	11.2	5.7	30 (≈ 11.3 µg/mL)	100 (≈ 37.7 µg/mL)
COCCn1cc(C(=O)c2ccc(-c3ccccc3)cc2)c2ccccc21	> 1000	> 1000	–	4.5	< 1	< 1	–	–	–	–	–	–	–	–	–
CCCCCn1cc(C(=O)c2cccc3ccccc23)c2cnccc21	50.1	316	–	–	–	–	50.1	–	–	–	–	6.49	–	–	–
CCCCCn1cc(C(=O)Nc2ccc3ccccc3c2)c2ccccc21	631	63.1	10	> 5	< 1	< 1	> 1000	5010	–	–	–	–	–	–	–
COCCn1cc(C(=O)c2cccc3ccccc23)c2cccnc21	200	501	0.4	3.57	3 (≈ 0.991 µg/mL)	3 (≈ 0.991 µg/mL)	> 1000	> 1000	–	–	–	< 2	26	10 (≈ 3.3 µg/mL)	65 (≈ 21.5 µg/mL)
CCCCCn1cc(C(=O)c2cccc3ccccc23)c2ccncc21	501	158	3	4.72	4 (≈ 1.37 µg/mL)	–	100	–	–	–	–	5.83	13	3 (≈ 1.03 µg/mL)	10 (≈ 3.42 µg/mL)
CCCCCCC(C)(C)c1cc(O)c2c(c1)OC(C)(C)C1CCC(=O)CC21 (stereo not given) [NABILONE]	6.31	3.98	1.7	> 5	< 1	< 1	–	15.8	–	–	–	10.6	–	–	–
COCCn1cc(C(=O)Nc2cccc3ccccc23)c2ccccc21	251	> 1000	< 0.3	2.94	3 (≈ 1.03 µg/mL)	3 (≈ 1.03 µg/mL)	–	6.31	–	–	–	–	27	30 (≈ 10.3 µg/mL)	100 (≈ 34.4 µg/mL)
COCCn1cc(C(=O)c2ccccc2-c2ccccc2)c2ccccc21	631	251	3	3.31	< 1	< 1	–	–	–	–	–	–	–	–	–
COCCn1cc(C(=O)c2cccc3ccccc23)c2ccncc21	25.1	> 1000	< 0.03	3.13	–	–	> 1000	–	–	–	–	5.8	–	–	–
CCCCCn1cc(C(=O)Nc2cccc3ccccc23)c2ccccc21	100	1.26	79	> 5	< 1	< 1	10	7.94	Dose-dependent effect	450	78.1	–	–	–	–
CCCCCn1cc(C(=O)c2ccccc2-c2ccccc2)c2ccccc21	7.94	6.31	1	> 5	< 1	–	–	–	–	–	–	–	–	–	–
